Reference: US8802597B2, “Herbicidal pyrimidines” (E I du Pont de Nemours and Company, priority 2003, dated 2014)

Columns and labels:
Type in all cases: in vivo
[1] = test system: umbrella sedge (Cyperus difformis); test: Test B flooded paddy test; details: Flood, 1000 g ai/ha; scale 0 to 100
Method in brief: (§1)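 Plants were grown to the 2-leaf stage before treatment, then kept in a greenhouse for 13 to 15 days. Injury was rated visually against untreated controls on a 0 to 100 scale, where 0 is no effect and 100 is complete control.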

[2] = test system: duck salad (Heteranthera limosa); test: Test B flooded paddy test; details: Flood, 1000 g ai/ha; scale 0 to 100
Method in brief: as §1

rice (Oryza sativa) = test: Test B flooded paddy test; details: Flood, 1000 g ai/ha; scale 0 to 100
Method in brief: as §1

[3] = test system: barnyardgrass (Echinochloa crus-galli); test: Test B flooded paddy test; details: Flood, 1000 g ai/ha; scale 0 (no effect) to 100 (complete control)
Method in brief: as §1

[4] = test system: Surinam grass (Brachiaria decumbens); test: Test B pre/postemergence
Excerpt: (§2) Seeds selected from barnyardgrass (Echinochloa crus-galli), Surinam grass (Brachiaria decumbens), cocklebur (Xanthium strumarium), corn (Zea mays), crabgrass (Digitaria sanguinalis), giant foxtail (Setaria faberii), lambsquarters (Chenopodium album), morningglory (Ipomoea coccinea), pigweed (Amaranthus retroflexus), velvetleaf (Abutilon theophrasti), and wheat (Triticum aestivum) were planted and treated preemergence with test chemicals formulated in a non-phytotoxic solvent mixture which included a surfactant.
(§3) At the same time, plants selected from these crop and weed species and also blackgrass (Alopecurus myosuroides) and wild oat (Avena fatua) were treated with postemergence applications of test chemicals formulated in the same manner. Plants ranged in height from 2 to 18 cm (1- to 4-leaf stage) for postemergence treatments. Plant species in the flooded paddy test consisted of rice (Oryza sativa), umbrella sedge (Cyperus difformis), duck salad (Heteranthera limosa) and barnyardgrass (Echinochloa crus-galli) grown to the 2-leaf stage for testing. Treated plants and controls were maintained in a greenhouse for 13 to 15 days, after which time all species were compared to controls and visually evaluated. Plant response ratings, summarized in Table B, are based on a scale of 0 to 100 where 0 is no effect and 100 is complete control. A dash (-) response means no test result.

[5] = test system: wheat (Triticum aestivum); test: Test B pre/postemergence
Excerpt: as §2, §3

[6] = test system: crabgrass (Digitaria sanguinalis); test: Test B pre/postemergence
Excerpt: as §2, §3

corn (Zea mays) = test: Test B pre/postemergence
Excerpt: as §2, §3

[7] = test system: giant foxtail (Setaria faberii); test: Test B pre/postemergence
Excerpt: as §2, §3

[8] = test system: lambsquarters (Chenopodium album); test: Test B pre/postemergence
Excerpt: as §2, §3

[9] = test system: velvetleaf (Abutilon theophrasti); test: Test B pre/postemergence
Excerpt: as §2, §3

[10] = test system: cocklebur (Xanthium strumarium); test: Test B pre/postemergence
Excerpt: as §2, §3

[11] = test system: morningglory (Ipomoea coccinea); test: Test B pre/postemergence
Excerpt: as §2, §3

[12] = test system: pigweed (Amaranthus retroflexus); test: Test B pre/postemergence
Excerpt: as §2, §3

[13] = test system: barnyardgrass (Echinochloa crus-galli); test: Test B pre/postemergence
Excerpt: as §2, §3

[14] = test system: blackgrass (Alopecurus myosuroides); test: Test B postemergence; details: for Blackgrass plant response rating: 125 g ai/ha, scale 0 to 100 (0 no effect, 100 complete control); for Plant response rating, Blackgrass: 500 g ai/ha, scale 0 to 100
Method in brief: (§4)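 Pre: compound (non-phytotoxic solvent + surfactant) applied to freshly planted seeds. Post: same formulation sprayed on 2–18 cm plants, 1- to 4-leaf. Readout: visual control rating 0–100 vs controls, 13–15 d, greenhouse.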

wild oat (Avena fatua) = test: Test B postemergence; details: for Oat, Wild plant response rating: 125 g ai/ha, scale 0 to 100 (0 no effect, 100 complete control); for Plant response rating, Oat, Wild: 500 g ai/ha, scale 0 to 100
Method in brief: as §4

[15] = Postemergence, 125 g ai/ha, scale 0 to 100 (0 no effect, 100 complete control)
[16] = Postemergence, 500 g ai/ha, scale 0 to 100
[17] = Preemergence, 125 g ai/ha, scale 0 to 100 (0 no effect, 100 complete control)
[18] = Preemergence, 500 g ai/ha, scale 0 to 100 (0 no effect, 100 complete control)

CC=NNc1nc(C2CC2)nc(C(=O)OC)c1Br [Compound 124]
90: Plant response rating, Lambsquarters [8, 16] | Plant response rating, Pigweed [12, 16]
60: Plant response rating, Cocklebur [10, 18] | Plant response rating, Morningglory [11, 18]
30: Plant response rating, Wheat [5, 16] | Cocklebur plant response rating [10, 15] | Plant response rating, Oat, Wild (wild oat (Avena fatua))
100: Plant response rating, Morningglory [11, 16]
20: Plant response rating, Foxtail, Giant [7, 16] | Velvetleaf plant response rating [9, 15] | Plant response rating, Velvetleaf [9, 17] | Plant response rating, Pigweed [12, 17]
40: Plant response rating, Crabgrass [6, 16] | Lambsquarters plant response rating [8, 15] | Plant response rating, Barnyardgrass [13, 16] | Plant response rating, Blackgrass [14]
80: Plant response rating, Cocklebur [10, 16]
10: Crabgrass plant response rating [6, 15] | Foxtail, Giant plant response rating [7, 15] | Plant response rating, Cocklebur [10, 17] | Plant response rating, Morningglory [11, 17]
50: Plant response rating, Velvetleaf [9, 16] | Plant response rating, Velvetleaf [9, 18] | Morningglory plant response rating [11, 15] | Pigweed plant response rating [12, 15]
70: Plant response rating, Lambsquarters [8, 18] | Plant response rating, Pigweed [12, 18]
0: Plant response rating, Sedge, Umbrella [1] | Plant response rating, Ducksalad [2] | Plant response rating, Rice (rice (Oryza sativa)) | Plant response rating, Barnyardgrass [3] | Surinam Grass plant response rating [4, 15] | Plant response rating, Surinam Grass [4, 16] | Plant response rating, Surinam Grass [4, 17] | Plant response rating, Surinam Grass [4, 18] | Wheat plant response rating [5, 15] | Plant response rating, Wheat [5, 17] | Plant response rating, Wheat [5, 18] | Plant response rating, Crabgrass [6, 17] | Plant response rating, Crabgrass [6, 18] | Corn plant response rating (corn (Zea mays); [15]) | Plant response rating, Corn (corn (Zea mays); [16]) | Plant response rating, Corn (corn (Zea mays); [17]) | Plant response rating, Corn (corn (Zea mays); [18]) | Plant response rating, Foxtail, Giant [7, 17] | Plant response rating, Foxtail, Giant [7, 18] | Plant response rating, Lambsquarters [8, 17] | Barnyardgrass plant response rating [13, 15] | Plant response rating, Barnyardgrass [13, 17] | Plant response rating, Barnyardgrass [13, 18] | Blackgrass plant response rating [14] | Oat, Wild plant response rating (wild oat (Avena fatua))

CCOC(=O)C(C)c1nc(C2CC2)nc(N)c1Br (centres unmarked) [Compound 32]
40: Crabgrass plant response rating [6, 18] | Plant response rating, Lambsquarters [8, 17] | Cocklebur plant response rating [10, 15] | Morningglory plant response rating [11, 15] | Plant response rating, Morningglory [11, 17] | Plant response rating, Pigweed [12, 17] | Plant response rating, Blackgrass [14]
0: Plant response rating, Sedge, Umbrella [1] | Plant response rating, Ducksalad [2] | Plant response rating, Rice (rice (Oryza sativa)) | Plant response rating, Barnyardgrass [3] | Surinam Grass plant response rating [4, 15] | Plant response rating, Surinam Grass [4, 17] | Surinam Grass plant response rating [4, 18] | Plant response rating, Wheat [5, 17] | Plant response rating, Crabgrass [6, 17] | Corn plant response rating (corn (Zea mays); [15]) | Plant response rating, Corn (corn (Zea mays); [17]) | Corn plant response rating (corn (Zea mays); [18]) | Plant response rating, Foxtail, Giant [7, 17] | Foxtail, Giant plant response rating [7, 18] | Plant response rating, Barnyardgrass [13, 17]
50: Plant response rating, Velvetleaf [9, 16] | Plant response rating, Velvetleaf [9, 17]
20: Wheat plant response rating [5, 15] | Plant response rating, Crabgrass [6, 16] | Plant response rating, Foxtail, Giant [7, 16] | Barnyardgrass plant response rating [13, 15] | Oat, Wild plant response rating (wild oat (Avena fatua))
90: Lambsquarters plant response rating [8, 18] | Plant response rating, Cocklebur [10, 16] | Cocklebur plant response rating [10, 18] | Plant response rating, Morningglory [11, 16] | Pigweed plant response rating [12, 18]
30: Plant response rating, Wheat [5, 16] | Blackgrass plant response rating [14] | Plant response rating, Oat, Wild (wild oat (Avena fatua))
70: Lambsquarters plant response rating [8, 15] | Plant response rating, Barnyardgrass [13, 16]
80: Plant response rating, Lambsquarters [8, 16] | Velvetleaf plant response rating [9, 18] | Plant response rating, Cocklebur [10, 17] | Morningglory plant response rating [11, 18] | Pigweed plant response rating [12, 15] | Plant response rating, Pigweed [12, 16]
10: Plant response rating, Surinam Grass [4, 16] | Wheat plant response rating [5, 18] | Crabgrass plant response rating [6, 15] | Plant response rating, Corn (corn (Zea mays); [16]) | Foxtail, Giant plant response rating [7, 15] | Velvetleaf plant response rating [9, 15] | Barnyardgrass plant response rating [13, 18]
